Experimental data: US20250059174A1, “Pharmaceutical Compounds and Compositions as C-Kit Kinase Inhibitors” (Enanta Pharmaceuticals, Inc., priority 2023, published 2025)

target: Recombinant human c-KIT kinase (Homo sapiens (Human), UniProt P10721); test: c-KIT kinase chemiluminescence assay (ADP-Glo); assay type: biochemical; settings: ATP 50 μM
Procedure, shortened: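 Recombinant human c-KIT preincubated 30 min at RT in 40 mM Tris pH 7.5, 20 mM MgCl2, 0.1 mg/mL BSA, 50 μM DTT, then reacted 2 h at RT with ATP and polyEY substrate. ADP-Glo luminescence readout; activity normalized to high/low controls, IC50 and Hill coefficient from inhibitor-versus-normalized-response fit.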

Sequence of Recombinant human c-KIT kinase (P10721 26-976): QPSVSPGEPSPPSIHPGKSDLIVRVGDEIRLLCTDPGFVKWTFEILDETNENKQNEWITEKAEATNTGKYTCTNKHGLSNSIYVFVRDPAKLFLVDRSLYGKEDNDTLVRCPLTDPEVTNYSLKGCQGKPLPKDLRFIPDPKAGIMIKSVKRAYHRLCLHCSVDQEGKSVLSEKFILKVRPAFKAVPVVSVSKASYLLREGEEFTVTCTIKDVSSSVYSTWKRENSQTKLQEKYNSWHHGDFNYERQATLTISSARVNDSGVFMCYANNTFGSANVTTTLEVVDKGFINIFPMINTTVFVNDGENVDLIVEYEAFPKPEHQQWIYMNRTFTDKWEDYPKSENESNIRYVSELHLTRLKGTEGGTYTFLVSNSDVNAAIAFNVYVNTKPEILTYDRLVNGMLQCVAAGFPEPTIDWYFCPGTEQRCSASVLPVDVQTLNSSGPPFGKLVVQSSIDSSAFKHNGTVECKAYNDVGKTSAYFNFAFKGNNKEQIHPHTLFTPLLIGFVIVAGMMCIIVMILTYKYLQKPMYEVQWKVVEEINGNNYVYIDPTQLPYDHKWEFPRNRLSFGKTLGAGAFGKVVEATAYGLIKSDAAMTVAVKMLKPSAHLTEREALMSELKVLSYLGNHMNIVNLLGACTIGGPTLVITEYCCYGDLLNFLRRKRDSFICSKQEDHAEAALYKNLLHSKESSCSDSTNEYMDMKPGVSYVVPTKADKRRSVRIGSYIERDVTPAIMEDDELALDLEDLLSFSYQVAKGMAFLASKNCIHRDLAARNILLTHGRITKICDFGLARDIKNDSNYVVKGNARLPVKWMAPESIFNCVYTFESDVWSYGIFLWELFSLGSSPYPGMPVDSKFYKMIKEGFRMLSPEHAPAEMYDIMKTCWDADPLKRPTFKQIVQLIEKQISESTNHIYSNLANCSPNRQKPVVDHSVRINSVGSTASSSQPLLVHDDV

Row | Structure (SMILES) | IC50 [nM]
1 | Cc1ccc(-c2noc([C@H]3C[C@@H]3F)n2)cc1NC(=O)c1cnn2ccc(-n3cc(N)cn3)cc12 [Example 237] | < 100
2 | C/C=C/c1ccn2ncc(C(=O)Nc3cc(-c4noc([C@H]5C[C@@H]5F)n4)ccc3C)c2c1 [Example 69] | < 100
3 | Cc1ccc(-c2noc([C@H]3C[C@@H]3F)n2)cc1NC(=O)c1cnn2cc(F)ccc12 [Example 1a] | 100 to 1000
4 | CN[C@H]1CCN(c2ccn3ncc(C(=O)Nc4cc(-c5noc([C@H]6C[C@@H]6F)n5)ccc4C)c3c2)C1 [Example 205] | < 100
5 | COC(=O)N1CC(c2nc(-c3ccc(C)c(NC(=O)c4cnn5ccc(N6CC7(COC7)C6)cc45)c3)no2)C1 [Example 281-43] | < 100
6 | Cc1sc(-c2noc(C3CN(C(=O)C4(F)CC4)C3)n2)cc1NC(=O)c1cnn2ccc(N3CC4(C3)CC(O)(C(F)F)C4)cc12 [Example 281-129] | 100 to 1000
7 | Cc1ccc(-c2noc([C@H]3C[C@@H]3F)n2)cc1NC(=O)c1cnn2ccc(NCC3(C(=O)OC(C)(C)C)COC3)cc12 [Example 241-9] | 100 to 1000
8 | Cc1ccc(-c2noc(C3CC4(C3)CC(F)(F)C4)n2)cc1NC(=O)c1cnn2ccc(N3CC4(COC4)C3)cc12 [Example 281-2] | < 100
9 | CC#Cc1ccc2c(C(=O)Nc3cc(-c4noc([C@H]5C[C@@H]5F)n4)ccc3C)cnn2c1 [Example 132-1] | < 100
10 | CC(=O)N1CC(Oc2ccn3ncc(C(=O)Nc4cc(-c5noc([C@H]6C[C@@H]6F)n5)ccc4C)c3c2)C1 [Example 218] | 100 to 1000
11 | Cc1ccc(-c2noc([C@H]3C[C@@H]3F)n2)cc1NC(=O)c1cnn2ccc(N3CC4(CNC4)C3)cc12 [Example 211] | < 100
12 | Cc1ccc(-c2noc([C@H]3C[C@@H]3F)n2)cc1NC(=O)c1cnn2cc(-c3cn(C(F)(F)C(=O)O)nn3)ccc12 [Example 132-4] | < 100
13 | Cc1ccc(-c2noc([C@H]3C[C@@H]3F)n2)cc1NC(=O)c1cnn(-c2cccc(N)c2)c1 [Example 74] | 100 to 1000
14 | Cc1ccc(-c2noc([C@H]3C[C@@H]3F)n2)cc1NC(=O)c1cnn2ccc(-c3cnc(N4CC(F)(F)C4)cc3C)cc12 [Example 171-24] | < 100
15 | Cc1ncc(-c2noc([C@H]3C[C@@H](OC(F)(F)F)C3)n2)cc1NC(=O)c1cnn2cc(-c3cn(CC(C)(C)O)nn3)ccc12 [Example 132-10] | 100 to 1000
16 | Cc1ccc(-c2noc(C3CN(C(=O)N4CC(F)(F)C4)C3)n2)cc1NC(=O)c1cnn2ccc(N3CC4(COC4)C3)cc12 [Example 281-61] | > 1000
17 | CC(=O)N1CCN(c2ccn3ncc(C(=O)Nc4cc(-c5noc([C@H]6C[C@@H]6F)n5)ccc4C)c3c2)CC1 [Example 241-6] | < 100

Results, then the molecule that gave them:

Row | IC50 [nM] | Structure (SMILES)
18 | < 100 | Cc1ccc(-c2noc([C@H]3C[C@@H]3F)n2)cc1NC(=O)c1cnc(-c2cnc3[nH]ccc3c2)o1 [Example 308-17]
19 | < 100 | Cc1ccc(-c2noc([C@H]3C[C@@H]3F)n2)cc1NC(=O)c1cnc(-c2ccc3c(c2)OCCN3)o1 [Example 308-24]
20 | > 1000 | [2H]C([2H])([2H])n1nnnc1-c1cnc(C)c(NC(=O)c2cnn3ccc(N4CC5(C4)CC(O)(C(F)F)C5)cc23)c1 [Example 312-3]
21 | > 1000 | Cc1ccc(-c2noc([C@H]3C[C@@H]3F)n2)cc1NC(=O)c1cnc(-c2ccc3oc(=O)[nH]c3c2)o1 [Example 307]
22 | < 100 | Cc1ccc(-c2noc([C@H]3C[C@@H]3F)n2)cc1NC(=O)c1cnc(-c2cccc3[nH]ncc23)o1 [Example 308-43]
23 | 100 to 1000 | Cc1ccc(-c2noc([C@H]3C[C@@H]3F)n2)cc1NC(=O)c1cnc(-c2cccc3[nH]c(=O)[nH]c23)o1 [Example 308-34]
24 | < 100 | Cc1ccc(-c2ccc(C3CC3)nc2)cc1NC(=O)c1cnn2ccc(N3CC4(COC4)C3)cc12 [Example 342]
25 | < 100 | Cc1ccc(-c2ncc3c(ccn3C(F)F)n2)cc1NC(=O)c1cnn2ccc(N3CC4(C3)CC(O)(C(F)F)C4)cc12 [Example 319]
26 | 100 to 1000 | COc1cccc(-c2ncc(C(=O)Nc3cc(-c4noc([C@H]5C[C@@H]5F)n4)ccc3C)o2)c1 [Example 283]
27 | 100 to 1000 | Cc1ccc(-c2ncc(OC(F)(F)F)cn2)cc1NC(=O)c1cnn2ccc(-c3c(C)nc(N)nc3C)cc12 [Example 367]

test system: M-07e cells; test: M-07e cellular assay (SCF-mediated cell proliferation); assay type: cell-based; settings: Homo sapiens, 72 hours, CellTiter Glo
Procedure, shortened: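 CellTiter Glo luminescence after 72 h compound exposure in SCF (EC90)-stimulated M-07e cells expressing endogenous human c-KIT.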

Row | Structure (SMILES) | EC50 [nM]
28 | Cc1ccc(-c2noc([C@H]3C[C@@H]3F)n2)cc1NC(=O)c1cnc(-c2cnc3[nH]ccc3c2)o1 [Example 308-17] | < 100
29 | Cc1ccc(-c2noc([C@H]3C[C@@H]3F)n2)cc1NC(=O)c1cnc(-c2ccc3c(c2)OCCN3)o1 [Example 308-24] | < 100
30 | Cc1ccc(-c2noc([C@H]3C[C@@H]3F)n2)cc1NC(=O)c1cnn2ccc(-n3cc(N)cn3)cc12 [Example 237] | 100 to 1000
31 | C/C=C/c1ccn2ncc(C(=O)Nc3cc(-c4noc([C@H]5C[C@@H]5F)n4)ccc3C)c2c1 [Example 69] | < 100
32 | Cc1ccc(-c2noc([C@H]3C[C@@H]3F)n2)cc1NC(=O)c1cnn2cc(F)ccc12 [Example 1a] | 100 to 1000
33 | CN[C@H]1CCN(c2ccn3ncc(C(=O)Nc4cc(-c5noc([C@H]6C[C@@H]6F)n5)ccc4C)c3c2)C1 [Example 205] | 100 to 1000
34 | COC(=O)N1CC(c2nc(-c3ccc(C)c(NC(=O)c4cnn5ccc(N6CC7(COC7)C6)cc45)c3)no2)C1 [Example 281-43] | < 100
35 | [2H]C([2H])([2H])n1nnnc1-c1cnc(C)c(NC(=O)c2cnn3ccc(N4CC5(C4)CC(O)(C(F)F)C5)cc23)c1 [Example 312-3] | > 1000
36 | Cc1ccc(-c2noc([C@H]3C[C@@H]3F)n2)cc1NC(=O)c1cnc(-c2ccc3oc(=O)[nH]c3c2)o1 [Example 307] | 100 to 1000
37 | Cc1ccc(-c2noc([C@H]3C[C@@H]3F)n2)cc1NC(=O)c1cnc(-c2cccc3[nH]ncc23)o1 [Example 308-43] | 100 to 1000
38 | Cc1sc(-c2noc(C3CN(C(=O)C4(F)CC4)C3)n2)cc1NC(=O)c1cnn2ccc(N3CC4(C3)CC(O)(C(F)F)C4)cc12 [Example 281-129] | 100 to 1000
39 | Cc1ccc(-c2noc([C@H]3C[C@@H]3F)n2)cc1NC(=O)c1cnn2ccc(NCC3(C(=O)OC(C)(C)C)COC3)cc12 [Example 241-9] | 100 to 1000
40 | Cc1ccc(-c2noc([C@H]3C[C@@H]3F)n2)cc1NC(=O)c1cnc(-c2cccc3[nH]c(=O)[nH]c23)o1 [Example 308-34] | > 1000
41 | Cc1ccc(-c2noc(C3CC4(C3)CC(F)(F)C4)n2)cc1NC(=O)c1cnn2ccc(N3CC4(COC4)C3)cc12 [Example 281-2] | < 100
42 | CC#Cc1ccc2c(C(=O)Nc3cc(-c4noc([C@H]5C[C@@H]5F)n4)ccc3C)cnn2c1 [Example 132-1] | 100 to 1000
43 | CC(=O)N1CC(Oc2ccn3ncc(C(=O)Nc4cc(-c5noc([C@H]6C[C@@H]6F)n5)ccc4C)c3c2)C1 [Example 218] | 100 to 1000
44 | Cc1ccc(-c2noc([C@H]3C[C@@H]3F)n2)cc1NC(=O)c1cnn2ccc(N3CC4(CNC4)C3)cc12 [Example 211] | 100 to 1000
45 | Cc1ccc(-c2noc([C@H]3C[C@@H]3F)n2)cc1NC(=O)c1cnn2cc(-c3cn(C(F)(F)C(=O)O)nn3)ccc12 [Example 132-4] | > 1000
46 | Cc1ccc(-c2ccc(C3CC3)nc2)cc1NC(=O)c1cnn2ccc(N3CC4(COC4)C3)cc12 [Example 342] | < 100
47 | Cc1ccc(-c2ncc3c(ccn3C(F)F)n2)cc1NC(=O)c1cnn2ccc(N3CC4(C3)CC(O)(C(F)F)C4)cc12 [Example 319] | < 100
48 | Cc1ccc(-c2noc([C@H]3C[C@@H]3F)n2)cc1NC(=O)c1cnn(-c2cccc(N)c2)c1 [Example 74] | > 1000
49 | Cc1ccc(-c2noc([C@H]3C[C@@H]3F)n2)cc1NC(=O)c1cnn2ccc(-c3cnc(N4CC(F)(F)C4)cc3C)cc12 [Example 171-24] | < 100
50 | COc1cccc(-c2ncc(C(=O)Nc3cc(-c4noc([C@H]5C[C@@H]5F)n4)ccc3C)o2)c1 [Example 283] | < 100
51 | Cc1ncc(-c2noc([C@H]3C[C@@H](OC(F)(F)F)C3)n2)cc1NC(=O)c1cnn2cc(-c3cn(CC(C)(C)O)nn3)ccc12 [Example 132-10] | < 100
52 | Cc1ccc(-c2noc(C3CN(C(=O)N4CC(F)(F)C4)C3)n2)cc1NC(=O)c1cnn2ccc(N3CC4(COC4)C3)cc12 [Example 281-61] | 100 to 1000
53 | Cc1ccc(-c2ncc(OC(F)(F)F)cn2)cc1NC(=O)c1cnn2ccc(-c3c(C)nc(N)nc3C)cc12 [Example 367] | 100 to 1000
54 | CC(=O)N1CCN(c2ccn3ncc(C(=O)Nc4cc(-c5noc([C@H]6C[C@@H]6F)n5)ccc4C)c3c2)CC1 [Example 241-6] | < 100
